Test results reported in US20090304692A1, “TRIAZINE COMPOUNDS AS PI3 KINASE AND MTOR INHIBITORS” (Wyeth, priority 2008, published 2009).
pIC50: −log10 of the molar value. Values joined by “and” are separate entries in the source; they are usually repeats but may differ in a detail not shown here. Equal values may be shown once. Where a name gives a salt, the structure may show the parent alone. Read-outs that look alike come from different tables or passages of the source.

Columns and labels:
[1] = tested on: human breast MDA-MB-361 tumor cell line; assay: In vitro cell culture growth assay (MTS), MDA-MB-361; format: cell-based; conditions: Homo sapiens, three days after drug treatment, read-out: IC50 MDA-MB-361
[2] = biological target: PI3K-γ (Homo sapiens, UniProt P48736); assay: PI3K-gamma fluorescence polarization assay; conditions: read-out: IC50 PI3Kγ
Chain of PI3K-γ (P48736 whole entry, species assumed): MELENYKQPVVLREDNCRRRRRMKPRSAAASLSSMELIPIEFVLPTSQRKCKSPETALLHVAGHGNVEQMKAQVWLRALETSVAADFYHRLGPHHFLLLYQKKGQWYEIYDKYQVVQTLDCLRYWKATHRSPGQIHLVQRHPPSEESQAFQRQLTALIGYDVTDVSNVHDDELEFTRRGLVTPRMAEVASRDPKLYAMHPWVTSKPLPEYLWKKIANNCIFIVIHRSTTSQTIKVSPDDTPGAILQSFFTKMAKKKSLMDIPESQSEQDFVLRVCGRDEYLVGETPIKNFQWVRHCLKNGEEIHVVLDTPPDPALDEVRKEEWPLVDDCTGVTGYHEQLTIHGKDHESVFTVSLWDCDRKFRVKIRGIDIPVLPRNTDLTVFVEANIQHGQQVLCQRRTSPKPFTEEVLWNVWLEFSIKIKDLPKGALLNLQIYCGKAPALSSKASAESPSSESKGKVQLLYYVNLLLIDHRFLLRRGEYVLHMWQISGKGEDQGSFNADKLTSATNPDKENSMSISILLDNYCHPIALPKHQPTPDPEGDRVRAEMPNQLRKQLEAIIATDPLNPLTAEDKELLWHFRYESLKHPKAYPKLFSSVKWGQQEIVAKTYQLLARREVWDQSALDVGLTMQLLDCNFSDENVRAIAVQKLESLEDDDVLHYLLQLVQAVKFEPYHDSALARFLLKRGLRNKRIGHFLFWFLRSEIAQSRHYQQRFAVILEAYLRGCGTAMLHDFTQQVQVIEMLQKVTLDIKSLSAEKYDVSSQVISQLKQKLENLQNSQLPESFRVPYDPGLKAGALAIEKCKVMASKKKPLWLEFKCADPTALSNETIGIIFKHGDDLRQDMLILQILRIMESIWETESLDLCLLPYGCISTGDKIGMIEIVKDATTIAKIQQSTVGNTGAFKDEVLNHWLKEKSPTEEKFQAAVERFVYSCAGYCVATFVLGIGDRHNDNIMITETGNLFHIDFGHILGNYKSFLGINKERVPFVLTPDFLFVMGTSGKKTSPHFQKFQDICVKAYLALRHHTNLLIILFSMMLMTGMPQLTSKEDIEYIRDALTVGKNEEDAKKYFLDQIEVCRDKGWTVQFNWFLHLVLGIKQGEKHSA

[3] = tested on: human prostate PC3-mm2 tumor cell line; assay: In vitro cell culture growth assay (MTS), PC3-mm2; format: cell-based; conditions: Homo sapiens, PC3MM2, 72 h, three days after drug treatment, read-out: IC50 PC3-mm2
[4] = biological target: PI3K-α (Homo sapiens, UniProt P42336); assay: PI3K-alpha fluorescence polarization assay; conditions: read-out: IC50 PI3Kα
Chain of PI3K-α (P42336 whole entry, species assumed): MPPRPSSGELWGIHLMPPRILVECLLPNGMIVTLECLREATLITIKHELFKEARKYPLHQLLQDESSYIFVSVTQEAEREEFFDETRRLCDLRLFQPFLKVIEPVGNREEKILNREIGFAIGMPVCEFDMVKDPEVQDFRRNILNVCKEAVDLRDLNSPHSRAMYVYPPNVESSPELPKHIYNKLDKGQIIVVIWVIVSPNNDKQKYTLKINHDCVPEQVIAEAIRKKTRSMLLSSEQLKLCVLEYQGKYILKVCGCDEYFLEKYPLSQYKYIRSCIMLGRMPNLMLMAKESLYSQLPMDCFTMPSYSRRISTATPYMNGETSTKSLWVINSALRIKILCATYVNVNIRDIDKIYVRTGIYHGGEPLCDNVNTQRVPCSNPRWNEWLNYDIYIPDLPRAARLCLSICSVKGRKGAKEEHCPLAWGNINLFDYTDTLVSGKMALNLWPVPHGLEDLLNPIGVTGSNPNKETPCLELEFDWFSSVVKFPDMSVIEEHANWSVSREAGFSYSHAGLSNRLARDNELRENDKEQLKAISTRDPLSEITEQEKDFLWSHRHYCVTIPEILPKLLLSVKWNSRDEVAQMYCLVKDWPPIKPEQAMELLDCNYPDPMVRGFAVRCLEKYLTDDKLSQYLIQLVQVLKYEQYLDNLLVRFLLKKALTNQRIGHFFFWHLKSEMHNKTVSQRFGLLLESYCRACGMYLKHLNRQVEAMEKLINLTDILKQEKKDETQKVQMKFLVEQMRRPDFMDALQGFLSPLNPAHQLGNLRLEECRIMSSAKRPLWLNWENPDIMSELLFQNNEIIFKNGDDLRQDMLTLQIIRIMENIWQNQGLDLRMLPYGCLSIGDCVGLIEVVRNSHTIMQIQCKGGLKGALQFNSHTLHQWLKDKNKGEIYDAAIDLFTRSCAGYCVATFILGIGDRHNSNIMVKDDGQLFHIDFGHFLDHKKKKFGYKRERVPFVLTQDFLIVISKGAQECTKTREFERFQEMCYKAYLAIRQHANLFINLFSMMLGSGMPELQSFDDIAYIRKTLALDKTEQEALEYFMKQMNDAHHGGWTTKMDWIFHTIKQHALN
Chain of PI3K-α (P27986 whole entry partner, species assumed): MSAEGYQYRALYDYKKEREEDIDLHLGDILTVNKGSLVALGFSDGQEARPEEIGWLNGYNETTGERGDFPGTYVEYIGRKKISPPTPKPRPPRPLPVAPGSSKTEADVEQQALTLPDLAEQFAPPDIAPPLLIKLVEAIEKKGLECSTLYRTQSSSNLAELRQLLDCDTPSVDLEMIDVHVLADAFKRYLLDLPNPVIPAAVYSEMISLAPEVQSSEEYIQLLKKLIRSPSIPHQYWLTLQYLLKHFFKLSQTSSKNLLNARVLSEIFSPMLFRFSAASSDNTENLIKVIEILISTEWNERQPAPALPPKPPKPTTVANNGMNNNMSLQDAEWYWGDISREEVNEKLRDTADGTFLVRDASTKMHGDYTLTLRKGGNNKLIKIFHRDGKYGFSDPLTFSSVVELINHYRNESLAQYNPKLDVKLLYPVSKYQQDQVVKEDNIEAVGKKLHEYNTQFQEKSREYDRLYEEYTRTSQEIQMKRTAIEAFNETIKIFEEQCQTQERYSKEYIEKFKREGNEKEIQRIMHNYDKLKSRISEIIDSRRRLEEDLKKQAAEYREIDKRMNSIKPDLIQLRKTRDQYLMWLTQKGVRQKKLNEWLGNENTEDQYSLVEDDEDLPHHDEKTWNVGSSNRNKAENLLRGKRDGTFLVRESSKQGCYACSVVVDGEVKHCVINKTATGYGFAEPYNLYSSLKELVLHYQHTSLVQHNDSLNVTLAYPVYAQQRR

[5] = biological target: Human mTOR (FLAG-TOR) (Homo sapiens, UniProt P42345); assay: mTOR kinase assay (DELFIA format, purified enzyme); format: biochemical; conditions: read-out: IC50 mTOR
Chain of Human mTOR (FLAG-TOR) (P42345 1360-2549 limits assumed): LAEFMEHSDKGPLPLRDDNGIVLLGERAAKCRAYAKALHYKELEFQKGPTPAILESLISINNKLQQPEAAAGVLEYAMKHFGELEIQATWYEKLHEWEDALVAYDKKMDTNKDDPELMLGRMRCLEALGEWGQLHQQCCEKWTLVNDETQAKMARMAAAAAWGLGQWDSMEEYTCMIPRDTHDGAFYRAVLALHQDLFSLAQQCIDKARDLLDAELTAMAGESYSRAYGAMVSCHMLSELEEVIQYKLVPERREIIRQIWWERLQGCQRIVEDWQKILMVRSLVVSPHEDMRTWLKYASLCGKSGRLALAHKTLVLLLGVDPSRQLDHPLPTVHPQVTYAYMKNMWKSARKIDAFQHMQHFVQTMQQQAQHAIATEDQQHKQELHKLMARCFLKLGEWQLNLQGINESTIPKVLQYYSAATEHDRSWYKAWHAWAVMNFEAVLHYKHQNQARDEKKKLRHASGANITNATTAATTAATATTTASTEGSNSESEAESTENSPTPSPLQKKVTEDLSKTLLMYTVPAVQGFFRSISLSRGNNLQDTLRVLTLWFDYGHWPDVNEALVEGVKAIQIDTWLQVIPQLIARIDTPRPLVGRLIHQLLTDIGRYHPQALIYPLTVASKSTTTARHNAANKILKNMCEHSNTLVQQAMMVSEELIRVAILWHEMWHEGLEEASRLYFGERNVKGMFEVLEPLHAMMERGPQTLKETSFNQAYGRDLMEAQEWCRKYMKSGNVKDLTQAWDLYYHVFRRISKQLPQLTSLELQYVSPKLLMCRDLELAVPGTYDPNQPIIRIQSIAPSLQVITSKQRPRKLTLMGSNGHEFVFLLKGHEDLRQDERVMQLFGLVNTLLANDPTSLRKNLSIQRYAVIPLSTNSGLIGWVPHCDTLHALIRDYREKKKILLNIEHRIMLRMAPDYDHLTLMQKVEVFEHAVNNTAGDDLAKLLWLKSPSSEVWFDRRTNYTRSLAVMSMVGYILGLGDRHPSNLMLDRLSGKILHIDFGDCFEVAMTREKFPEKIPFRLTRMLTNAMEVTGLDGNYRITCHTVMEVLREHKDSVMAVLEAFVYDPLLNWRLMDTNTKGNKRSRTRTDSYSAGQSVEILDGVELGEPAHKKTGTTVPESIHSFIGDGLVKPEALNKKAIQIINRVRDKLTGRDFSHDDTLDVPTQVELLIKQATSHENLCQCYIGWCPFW

[6] = 72 h, MTS cell growth assay, MDA-MB-361 cells
[7] = MTS cell growth assay, PC3-mm2 cells
[8] = MDA-MB-361, 72 h, MTS cell growth assay
[9] = MDA-MB-361, 72 h, MTS cell growth assay, MDA-MB-361 cells

Row | SMILES | pIC50 [1, 6] | pIC50 [2] | pIC50 [3, 7] | pIC50 [4] | pIC50 [5] | pIC50 [1, 8] | pIC50 ([3]; MTS cell growth assay) | pIC50 [1, 9] | pIC50 ([2]; listed as 671) | pIC50 ([4]; listed as 671) | pIC50 ([1]; MDA-MB-361, 72 h, MDA-MB-361 cells, MTS) | pIC50 ([3]; PC3-mm2 cells, MTS) | pIC50 ([2]; listed as 710) | pIC50 ([4]; listed as 710)
1 | CCc1nc(-c2ccc(NC(=O)Nc3ccc(C(=O)N4CCN(c5ccccn5)CC4)cc3)cc2)nc(N2CCOCC2)n1 [Example 534, 1-[4-(4-ethyl-6-morpholin-4-yl-1,3,5-triazin-2-yl)phenyl]-3-{4-[(4-pyridin-2-ylpiperazin-1-yl)carbonyl]phenyl}urea] | 7.49 | 7.95 | 7.13 | 8.68 | 7.27 |  |  |  |  |  |  |  |  | 
2 | CN(C)CCN(C)C(=O)c1ccc(NC(=O)Nc2ccc(-c3nc(NS(=O)(=O)c4ccccc4)nc(N4CCOCC4)n3)cc2)cc1 [Example 787, N-[2-(dimethylamino)ethyl]-N-methyl-4-{[(4-{4-morpholin-4-yl-6-[(phenylsulfonyl)amino]-1,3,5-triazin-2-yl}phenyl)carbamoyl]amino}benzamide] | < 6.00 | 6.84 | < 6.00 | 7.98 | 7.23 |  |  |  |  |  |  |  |  | 
3 | Cc1nc(-c2ccc(NC(=O)Nc3ccc(C(=O)N4CCN(C)CC4)cc3)cc2)nc(N2CCOCC2)n1 [Example 166, 1-[4-(4-methyl-6-morpholin-4-yl-1,3,5-triazin-2-yl)phenyl]-3-{4-[(4-methylpiperazin-1-yl)carbonyl]phenyl}urea] |  | 7.48 |  | 8.40 | 7.22 | 6.87 | 6.60 |  |  |  |  |  |  | 
4 | CN(C)C1CCN(C(=O)c2ccc(NC(=O)Nc3ccc(-c4nc(N5CCCC5)nc(N5CCOCC5)n4)cc3)cc2)CC1 [Example 602, 1-(4-{[4-(dimethylamino)piperidin-1-yl]carbonyl}phenyl)-3-[4-(4-morpholin-4-yl-6-pyrrolidin-1-yl-1,3,5-triazin-2-yl)phenyl]urea] |  | 7.33 | 6.91 | 8.15 | 7.96 |  |  | 7.77 |  |  |  |  |  | 
5 | CC(C)c1nc(-c2ccc(NC(=O)Nc3ccc(C(=O)N4CCC(N(C)C)CC4)cc3)cc2)nc(N2CCOCC2)n1 [Example 308, 1-(4-{[4-(dimethylamino)piperidin-1-yl]carbonyl}phenyl)-3-{4-[4-(1-methylethyl)-6-morpholin-4-yl-1,3,5-triazin-2-yl]phenyl}urea] |  | 7.85 |  | 8.52 | 8.54 | 8.40 | 7.28 |  |  |  |  |  |  | 
6 | CCN1CCN(C(=O)c2ccc(NC(=O)Nc3ccc(-c4nc(N5CCCC5)nc(N5CCOCC5)n4)cc3)cc2)CC1 [Example 606, 1-{4-[(4-ethylpiperazin-1-yl)carbonyl]phenyl}-3-[4-(4-morpholin-4-yl-6-pyrrolidin-1-yl-1,3,5-triazin-2-yl)phenyl]urea] |  | 7.06 | 6.76 | 7.92 | 7.59 |  |  | 7.55 |  |  |  |  |  | 
7 | CC(C)N1CCN(C(=O)c2ccc(NC(=O)Nc3ccc(-c4nc(N5CCOC[C@@H]5C)nc(N5CCOC[C@@H]5C)n4)cc3)cc2)CC1 [Example 614, 1-(4-{4,6-bis[(3S)-3-methylmorpholin-4-yl]-1,3,5-triazin-2-yl}phenyl)-3-(4-{[4-(1-methylethyl)piperazin-1-yl]carbonyl}phenyl)urea] | 8.40 | 7.49 | 7.82 | 8.57 | 9.00 |  |  |  |  |  |  |  |  | 
8 | Cc1cc(NC(=O)Nc2ccc(-c3nc(N4CCOCC4)nc(N4CCOC[C@@H]4C)n3)cc2)ccn1 [Example 92, 1-(4-{4-[(3S)-3-methylmorpholin-4-yl]-6-morpholin-4-yl-1,3,5-triazin-2-yl}phenyl)-3-(2-methylpyridin-4-yl)urea] |  | 7.04 |  | 7.96 | 8.63 | 6.85 | 7.06 |  |  |  |  |  |  | 
9 | CCCCN1CCN(C(=O)c2ccc(NC(=O)Nc3ccc(-c4nc(N5CCOC[C@@H]5C)nc(N5CCOC[C@@H]5C)n4)cc3)cc2)CC1 [Example 629, 1-(4-{4,6-bis[(3S)-3-methylmorpholin-4-yl]-1,3,5-triazin-2-yl}phenyl)-3-{4-[(4-butylpiperazin-1-yl)carbonyl]phenyl}urea] | 7.55 | 7.02 | 6.88 | 7.59 | 8.40 |  |  |  |  |  |  |  |  | 
10 | O=C(NCCN1CCCCC1)Nc1ccc(NC(=O)Nc2ccc(-c3nc(N4CCOCC4)nc(N4CCOCC4)n3)cc2)cc1 [Example 501, 1-[4-(4,6-dimorpholin-4-yl-1,3,5-triazin-2-yl)phenyl]-3-(4-{[(2-piperidin-1-ylethyl)carbamoyl]amino}phenyl)urea] | > 7.51 | 8.19 | 7.39 | > 8.76 | 9.16 |  |  |  |  |  |  |  |  | 
11 | O=C(Nc1ccc(-c2nc(N3CCOCC3)nc(N3C4CCC3COC4)n2)cc1)Nc1cccnc1 [Example 36, 1-{4-[4-morpholin-4-yl-6-(3-oxa-8-azabicyclo[3.2.1]oct-8-yl)-1,3,5-triazin-2-yl]phenyl}-3-pyridin-3-ylurea] |  | 6.82 | 7.01 | 7.77 | 9.29 and 9.30 | 7.14 | 7.01 | 7.14 | 6.82 | 7.76 |  |  |  | 
12 | O=C(Nc1ccc(C(=O)NCCc2ccncc2)cc1)Nc1ccc(-c2nc(N3CCOCC3)nc(N3C4COCC3COC4)n2)cc1 [Example 779, 4-[({4-[4-(3,7-dioxa-9-azabicyclo[3.3.1]non-9-yl)-6-morpholin-4-yl-1,3,5-triazin-2-yl]phenyl}carbamoyl)amino]-N-(2-pyridin-4-ylethyl)benzamide] | 7.89 | 7.30 | 7.64 | 8.38 | 9.64 |  |  |  |  |  |  |  |  | 
13 | O=C(Nc1ccc(C(=O)N2CCNCC2)cc1)Nc1ccc(-c2nc(N3CCOCC3)nc(N3CC4CCC3CO4)n2)cc1 (stereo not drawn) [Example 814, 1-{4-[4-morpholin-4-yl-6-(2-oxa-5-azabicyclo[2.2.2]oct-5-yl)-1,3,5-triazin-2-yl]phenyl}-3-[4-(piperazin-1-ylcarbonyl)phenyl]urea] |  | 8.00 |  | 9.10 | 8.98 |  |  |  |  |  | 8.40 | 7.43 |  | 
14 | CN1CCN(C(=O)c2ccc(NC(=O)Nc3ccc(-c4nc(N5CCOCC5)nc(N5CCOCC5)n4)cc3)cc2)CC1 [Example 69, 1-(4-(4,6-dimorpholino-1,3,5-triazin-2-yl)phenyl)-3-(4-(4-methylpiperazine-1-carbonyl)phenyl)urea hydrochloride] |  | 8.10 |  | 9.40 | 9.07 | 8.00 | 7.89 |  |  |  |  |  |  | 
15 | Cc1cc(NC(=O)Nc2ccc(-c3nc(N4CCOCC4)nc(N4CCC5(CC4)OCCO5)n3)cc2)ccn1 [Example 135, 1-{4-[4-(1,4-dioxa-8-azaspiro[4.5]dec-8-yl)-6-morpholin-4-yl-1,3,5-triazin-2-yl]phenyl}-3-(2-methylpyridin-4-yl)urea] |  | 6.84 | 6.29 | 7.82 | 7.47 | 6.27 | 6.29 |  |  |  |  |  | 6.84 | 7.81
16 | CN1CCN(C(=O)c2ccc(NC(=O)Nc3ccc(-c4nc(-c5cccs5)nc(N5CCOCC5)n4)cc3)cc2)CC1 [Example 559, 1-{4-[(4-methylpiperazin-1-yl)carbonyl]phenyl}-3-{4-[4-morpholin-4-yl-6-(2-thienyl)-1,3,5-triazin-2-yl]phenyl}urea] |  | 7.87 | 6.83 | 8.70 | 8.00 |  |  | 8.10 |  |  |  |  |  | 
17 | CC(C)(C)OC(=O)N1CC(Nc2nc(-c3ccc(NC(=O)Nc4ccncc4)cc3)nc(N3CCOCC3)n2)C1 [Example 21, tert-butyl 3-[(4-morpholin-4-yl-6-{4-[(pyridine-4-ylcarbamoyl)amino]phenyl}-1,3,5-triazin-2-yl)amino]azetidine-1-carboxylate] |  | 7.04 |  | 7.66 | 8.76 | 6.89 | 6.61 |  |  |  |  |  |  | 
18 | COCCNC(=O)c1ccc(NC(=O)Nc2ccc(-c3nc(-c4ccccc4)nc(N4CCOCC4)n3)cc2)cc1 [Example 551, N-(2-methoxyethyl)-4-({[4-(4-morpholin-4-yl-6-phenyl-1,3,5-triazin-2-yl)phenyl]carbamoyl}amino)benzamide] | 6.97 | 6.93 | 6.57 | 7.62 | 8.00 |  |  |  |  |  |  |  |  | 
19 | CCN1CCN(C(=O)c2ccc(NC(=O)Nc3ccc(-c4nc(N5CCOCC5)nc(N5CCN(C(=O)N(C)C)CC5)n4)cc3)cc2)CC1 [Example 649, 4-(4-{4-[({4-[(4-ethylpiperazin-1-yl)carbonyl]phenyl}carbamoyl)amino]phenyl}-6-morpholin-4-yl-1,3,5-triazin-2-yl)-N,N-dimethylpiperazine-1-carboxamide] |  | 7.42 | 7.43 | 8.19 | 8.22 |  |  | 8.05 |  |  |  |  |  | 
